{"source": "ChEMBL document CHEMBL1201862", "about": "“PubChem BioAssay data set” (2004)", "key": {"[1]": {"assay": "Luminescence Cell-Based Dose Response HTS to Identify Inhibitors of 5'UTR Stem-Loop Driven Prion Protein mRNA Translation in H4 Neuroglioblastoma Cells. [Related pubchem assays: 1827 (Project Summary), 1813 (Primary HTS)]", "type": "functional"}, "[2]": {"assay": "inhibitors of SNCA 5'UTR-driven reporter translation, confirmation, H4 neuroglioma cells, luminescence (AID 1988)", "type": "functional, cell-based"}, "Cytochrome P450 3A4": {"target": "Cytochrome P450 3A4 (Homo sapiens, UniProt P08684)", "sequence (P08684 whole entry)": "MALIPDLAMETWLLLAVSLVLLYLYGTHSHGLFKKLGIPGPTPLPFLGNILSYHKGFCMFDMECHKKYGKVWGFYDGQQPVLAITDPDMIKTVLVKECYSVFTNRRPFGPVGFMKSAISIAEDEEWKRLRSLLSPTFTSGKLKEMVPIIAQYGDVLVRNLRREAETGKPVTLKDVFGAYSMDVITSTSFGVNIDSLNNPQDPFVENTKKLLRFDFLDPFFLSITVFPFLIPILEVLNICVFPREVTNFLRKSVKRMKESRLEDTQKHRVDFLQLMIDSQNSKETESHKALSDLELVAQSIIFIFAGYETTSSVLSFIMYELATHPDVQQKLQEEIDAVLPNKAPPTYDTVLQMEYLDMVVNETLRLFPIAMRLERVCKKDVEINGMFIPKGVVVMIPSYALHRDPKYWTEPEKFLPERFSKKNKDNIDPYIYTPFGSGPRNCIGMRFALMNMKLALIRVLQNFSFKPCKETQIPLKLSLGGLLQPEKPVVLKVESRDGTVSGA"}, "Cytochrome P450 2C9": {"target": "Cytochrome P450 2C9 (Homo sapiens, UniProt P11712)", "sequence (P11712 whole entry)": "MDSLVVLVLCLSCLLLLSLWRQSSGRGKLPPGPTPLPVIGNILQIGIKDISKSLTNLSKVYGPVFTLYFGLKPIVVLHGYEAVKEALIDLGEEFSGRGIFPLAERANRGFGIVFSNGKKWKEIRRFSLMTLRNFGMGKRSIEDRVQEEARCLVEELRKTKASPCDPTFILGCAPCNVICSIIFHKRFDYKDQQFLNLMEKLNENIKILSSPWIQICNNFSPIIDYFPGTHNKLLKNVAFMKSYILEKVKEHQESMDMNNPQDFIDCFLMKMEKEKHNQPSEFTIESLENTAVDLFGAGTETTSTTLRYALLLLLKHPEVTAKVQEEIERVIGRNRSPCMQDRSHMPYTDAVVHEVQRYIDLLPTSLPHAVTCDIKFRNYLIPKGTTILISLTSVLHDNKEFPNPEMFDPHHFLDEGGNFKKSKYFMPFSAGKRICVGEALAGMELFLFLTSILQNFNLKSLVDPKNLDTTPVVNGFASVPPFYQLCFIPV"}, "Cytochrome P450 2C19": {"target": "Cytochrome P450 2C19 (Homo sapiens, UniProt P33261)", "sequence (P33261 whole entry)": "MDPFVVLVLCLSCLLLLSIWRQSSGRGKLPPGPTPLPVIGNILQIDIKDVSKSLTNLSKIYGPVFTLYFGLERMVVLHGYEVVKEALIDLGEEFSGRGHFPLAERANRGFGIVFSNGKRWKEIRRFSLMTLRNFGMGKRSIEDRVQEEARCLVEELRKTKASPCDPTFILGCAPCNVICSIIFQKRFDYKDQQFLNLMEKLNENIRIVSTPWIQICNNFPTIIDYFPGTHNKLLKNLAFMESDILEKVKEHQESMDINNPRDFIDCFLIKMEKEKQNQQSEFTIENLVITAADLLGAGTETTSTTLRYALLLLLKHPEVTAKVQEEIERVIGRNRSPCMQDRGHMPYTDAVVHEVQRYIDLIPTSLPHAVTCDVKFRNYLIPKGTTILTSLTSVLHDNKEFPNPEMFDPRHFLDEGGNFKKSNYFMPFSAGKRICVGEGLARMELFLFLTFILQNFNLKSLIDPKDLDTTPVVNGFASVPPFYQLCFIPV", "assay": "Cytochrome panel assay with activity outcomes. Panel member name: p450-cyp2c19 Compounds with AC50 equal or less than 10 uM are considered active", "type": "functional"}, "Cytochrome P450 2D6": {"target": "Cytochrome P450 2D6 (Homo sapiens, UniProt P10635)", "sequence (P10635 whole entry)": "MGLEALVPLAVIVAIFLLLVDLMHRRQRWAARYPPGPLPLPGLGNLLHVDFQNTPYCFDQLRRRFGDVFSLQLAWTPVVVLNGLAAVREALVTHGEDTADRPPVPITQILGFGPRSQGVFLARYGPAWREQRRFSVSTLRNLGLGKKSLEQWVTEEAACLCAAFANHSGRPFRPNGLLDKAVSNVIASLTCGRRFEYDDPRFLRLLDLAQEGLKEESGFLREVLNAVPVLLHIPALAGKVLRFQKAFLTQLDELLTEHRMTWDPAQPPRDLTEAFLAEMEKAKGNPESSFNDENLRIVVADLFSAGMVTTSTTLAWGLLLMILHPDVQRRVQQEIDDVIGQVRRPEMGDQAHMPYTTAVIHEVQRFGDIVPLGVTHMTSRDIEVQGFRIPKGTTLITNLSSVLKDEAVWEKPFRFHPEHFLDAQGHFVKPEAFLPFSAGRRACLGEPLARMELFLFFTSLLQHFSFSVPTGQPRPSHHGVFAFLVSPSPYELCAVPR"}, "[3]": {"assay": "inhibitors of firefly luciferase expression or activity, dose response, H4 neuroglioma cells, luminescence (AID 1990)", "type": "functional, cell-based"}, "INS1": {"tested_on": "INS1", "assay": "beta cell apoptosis inhibitors, cytokine rescue, dose response, luminescence, retest (AID 449756);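 further: cell death triggered by IL-1 beta plus TNF-alpha plus IFN-gamma mixture; protective hits raise ATP signal compared with cytokine alone wells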", "type": "functional, cell-based", "conditions": "Rattus norvegicus"}, "[4]": {"target": "T1, Rac GTPase-activating protein 1 (Homo sapiens, UniProt Q9H0H5)", "T1 sequence (Q9H0H5 whole entry)": "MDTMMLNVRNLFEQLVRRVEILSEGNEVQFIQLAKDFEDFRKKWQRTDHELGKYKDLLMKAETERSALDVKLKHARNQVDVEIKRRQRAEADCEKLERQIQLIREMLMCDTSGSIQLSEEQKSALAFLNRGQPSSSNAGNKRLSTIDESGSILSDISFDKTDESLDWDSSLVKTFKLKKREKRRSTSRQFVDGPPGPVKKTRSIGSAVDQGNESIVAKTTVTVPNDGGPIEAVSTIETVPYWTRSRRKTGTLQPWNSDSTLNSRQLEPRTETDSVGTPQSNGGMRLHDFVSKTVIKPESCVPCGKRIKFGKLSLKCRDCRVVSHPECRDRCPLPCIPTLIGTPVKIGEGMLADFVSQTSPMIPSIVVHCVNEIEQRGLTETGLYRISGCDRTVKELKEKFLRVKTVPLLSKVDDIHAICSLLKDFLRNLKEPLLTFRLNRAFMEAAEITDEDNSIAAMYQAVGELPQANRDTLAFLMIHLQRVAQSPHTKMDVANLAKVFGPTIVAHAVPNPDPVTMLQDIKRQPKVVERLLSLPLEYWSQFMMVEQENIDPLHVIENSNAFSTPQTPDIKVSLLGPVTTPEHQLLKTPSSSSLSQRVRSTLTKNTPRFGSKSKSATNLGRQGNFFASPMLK", "assay": "MgcRacGAP GTPase-activating activity inhibitors, confirmation, biochemical, ADP Hunter fluorescence, primary and confirmatory (AID 624330)", "type": "functional"}, "[5]": {"assay": "Luminescence Cell-Based Dose Confirmation HTS to Identify Activators of 5'UTR Stem-Loop Driven Alpha-Synuclein mRNA Translation in H4 Neuroglioblastoma Cells. [Related pubchem assays: 1829 (Project Summary), 1814 (Primary HTS)]", "type": "functional"}, "H4": {"tested_on": "H4", "assay": "Luminescence Cell-Based Dose Response HTS to Identify Activators of 5'UTR Stem-Loop Driven Prion Protein mRNA Translation in H4 Neuroglioblastoma Cells. [Related pubchem assays: 1829 (Project Summary), 1814 (Primary HTS)]", "type": "functional", "conditions": "Homo sapiens"}, "[6]": {"assay": "Luminescence Cell-Based Dose Response HTS to Identify Activators of Luciferase Translation or Activity in H4 […] Cells. [Related pubchem assays: 1829 (Project Summary), 1814 (Primary HTS)]", "type": "functional"}, "Cytochrome P450 1A2": {"target": "T2, Cytochrome P450 1A2 (Homo sapiens, UniProt P05177)", "T2 sequence (P05177 whole entry)": "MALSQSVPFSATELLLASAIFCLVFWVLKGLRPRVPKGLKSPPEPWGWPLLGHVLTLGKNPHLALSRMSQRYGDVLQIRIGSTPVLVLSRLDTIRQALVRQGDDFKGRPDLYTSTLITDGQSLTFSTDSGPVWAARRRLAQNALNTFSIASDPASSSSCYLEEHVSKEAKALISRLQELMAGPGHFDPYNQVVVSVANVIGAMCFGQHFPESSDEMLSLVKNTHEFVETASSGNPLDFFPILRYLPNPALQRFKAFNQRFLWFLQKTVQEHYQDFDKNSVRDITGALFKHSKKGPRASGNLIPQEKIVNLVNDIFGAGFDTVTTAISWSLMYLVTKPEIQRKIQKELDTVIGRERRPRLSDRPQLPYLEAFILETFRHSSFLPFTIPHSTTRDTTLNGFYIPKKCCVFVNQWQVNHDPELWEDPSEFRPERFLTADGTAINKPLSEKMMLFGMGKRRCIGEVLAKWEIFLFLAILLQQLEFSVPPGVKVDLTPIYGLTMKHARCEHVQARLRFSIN"}}, "note": "“And” between values parts separate entries of the source, which are not always exact repeats. Equal entries are not always repeated. The source made the active and inactive calls."}
{"smiles": "Cc1cc(C)c(NC=C2C(=O)NC(=O)NC2=O)c(C)c1", "values": [{"measurement": "EC50", "setting": "[1]", "value": "> 60 µM (not active)"}, {"measurement": "EC50", "setting": "[2]", "value": "> 120 µM (not active)"}]}
{"smiles": "CCOC(=O)/C(C#N)=C\\c1ccc(OCC(=O)Nc2ccc(C)cc2C)c(OC)c1", "values": [{"measurement": "AC50", "setting": "Cytochrome P450 3A4", "value": "10 µM (inconclusive)"}, {"measurement": "AC50", "setting": "Cytochrome P450 2C9", "value": "25.1 µM (inconclusive)"}]}
{"smiles": "O=C1[C@@H]2C=CC=CC2=NC(=S)N1CCN1CCC(=C(c2ccc(F)cc2)c2ccc(F)cc2)CC1", "values": [{"measurement": "AC50", "setting": "Cytochrome P450 2C19; read-out: AC50", "value": "10 µM (inconclusive)"}, {"measurement": "AC50", "setting": "Cytochrome P450 3A4", "value": "3.16 µM (inconclusive)"}]}
{"smiles": "N[N-][C+]1c2ccccc2N[C@H]1OC(=O)Nc1cccc(Cl)c1", "values": [{"measurement": "AC50", "setting": "Cytochrome P450 2C19; read-out: AC50", "value": "3.16 µM (inconclusive)"}, {"measurement": "AC50", "setting": "Cytochrome P450 2D6", "value": "3.98 µM (inconclusive)"}, {"measurement": "AC50", "setting": "Cytochrome P450 3A4", "value": "5.01 µM (inconclusive)"}]}
{"smiles": "CCc1nnc(NC(=O)c2ccc(S(=O)(=O)NC3CCCCC3)cc2)s1", "values": [{"measurement": "EC50", "setting": "[3]", "value": "> 120 µM (not active)"}, {"measurement": "EC50", "setting": "[1]", "value": "> 120 µM (not active)"}, {"measurement": "EC50", "setting": "[2]", "value": "> 120 µM (not active)"}]}
{"smiles": "CCCCn1c(=N)n(CC(=O)c2ccco2)c2ccccc21", "values": [{"measurement": "AC50", "setting": "Cytochrome P450 2C19; read-out: AC50", "value": "15.8 µM (inconclusive)"}, {"measurement": "AC50", "setting": "Cytochrome P450 3A4", "value": "31.6 µM (inconclusive)"}]}
{"smiles": "COc1ccc(-c2cn(CCO)nc2-c2ccc(OC)cc2)cc1", "values": [{"measurement": "EC50", "setting": "[3]", "value": "16.1 µM (active)"}, {"measurement": "EC50", "setting": "[1]", "value": "> 120 µM (not active)"}, {"measurement": "EC50", "setting": "[2]", "value": "> 120 µM (not active)"}]}
{"smiles": "CN(C)c1cc[n+](CC(=O)Nc2ccc(Oc3ccccc3)cc2)cc1", "values": [{"measurement": "EC50", "setting": "[3]", "value": "17.1 µM (active)"}, {"measurement": "AC50", "setting": "INS1", "value": "4.17 µM (active)"}, {"measurement": "EC50", "setting": "[1]", "value": "> 120 µM (not active)"}, {"measurement": "EC50", "setting": "[2]", "value": "14.9 µM (active)"}]}
{"smiles": "O=C(NCCCN1CCOCC1)c1cc2c(s1)CSC2", "values": [{"measurement": "AC50", "setting": "Cytochrome P450 3A4", "value": "15.8 µM (inconclusive)"}]}
{"smiles": "Cc1cnc(NC(=O)C(C)N2CCN(C)CC2)s1", "note": "(centres undefined)", "values": [{"measurement": "IC50", "setting": "[4]", "value": "80.4 µM (active)"}]}
{"smiles": "O=C(NCCC[N+]1=CC=N[C@H]1c1ccccc1)N1CCCc2nc(-c3ccc(Br)cc3)ccc21", "values": [{"measurement": "AC50", "setting": "Cytochrome P450 3A4", "value": "3.16 µM (inconclusive)"}]}
{"smiles": "CC(=O)N1CCC2(CCCN(C(=O)Nc3cccc(F)c3)C2)CC1", "values": [{"measurement": "AC50", "setting": "Cytochrome P450 3A4", "value": "31.6 µM (inconclusive)"}]}
{"smiles": "Cc1noc(C)c1-c1cc(NCc2cccs2)ncn1", "values": [{"measurement": "AC50", "setting": "Cytochrome P450 2C19", "value": "inconclusive"}, {"measurement": "AC50", "setting": "Cytochrome P450 2D6", "value": "20 µM (inconclusive)"}, {"measurement": "AC50", "setting": "Cytochrome P450 3A4", "value": "31.6 µM (inconclusive)"}]}
{"smiles": "CSC1=N/C(=C\\c2ccc(C)cc2)C(=O)S1", "values": [{"measurement": "AC50", "setting": "Cytochrome P450 3A4", "value": "39.8 µM (inconclusive)"}]}
{"smiles": "O=C(Nc1ccccc1[N+](=O)[O-])C1C(c2ccccc2)=C1c1ccccc1", "values": [{"measurement": "AC50", "setting": "Cytochrome P450 3A4", "value": "20 µM (inconclusive)"}]}
{"smiles": "CC(C)[C@@H](OCc1ccccc1)[C@H](C)/C=N\\O[C@@H](C)c1cn([C@H](CO)Cc2ccccc2)nn1", "values": [{"measurement": "AC50", "setting": "Cytochrome P450 3A4", "value": "3.16 µM (inconclusive) and 3.98 µM (inconclusive)"}]}
{"smiles": "Cc1ccc(NC(=O)Cc2nc(CSc3nnc(-c4ccc5c(c4)OCO5)o3)cs2)cc1", "values": [{"measurement": "EC50", "setting": "[5]", "value": "82.5 µM (active)"}, {"measurement": "EC50", "setting": "H4", "value": "6.97 µM (active)"}, {"measurement": "EC50", "setting": "[6]", "value": "53.6 µM (active)"}]}
{"smiles": "Cc1ccc(S(=O)(=O)N2CCC(=O)N(C(COCc3ccc(Cl)cc3)Cc3ccccc3)CC2)cc1", "note": "(centres undefined)", "values": [{"measurement": "EC50", "setting": "[3]", "value": "> 120 µM (not active)"}, {"measurement": "EC50", "setting": "[1]", "value": "39.1 µM (active)"}, {"measurement": "EC50", "setting": "[2]", "value": "36.4 µM (active)"}]}
{"smiles": "C=CCc1cc(C=O)cc(OC)c1OCc1ccc(Cl)cc1", "values": [{"measurement": "AC50", "setting": "Cytochrome P450 3A4", "value": "17.8 µM (inconclusive)"}]}
{"smiles": "CCN1CCN(CC(=O)Nc2ccc(C)c(Br)c2)CC1", "values": [{"measurement": "IC50", "setting": "[4]", "value": "95.7 µM (active)"}]}
{"smiles": "CC(=O)/C(=C\\c1ccccc1F)C(=O)c1ccccc1", "values": [{"measurement": "AC50", "setting": "Cytochrome P450 3A4", "value": "3.16 µM (inconclusive)"}, {"measurement": "AC50", "setting": "Cytochrome P450 1A2", "value": "5.01 µM (inconclusive)"}, {"measurement": "AC50", "setting": "Cytochrome P450 2C9", "value": "6.31 µM (inconclusive)"}]}
{"smiles": "COc1cc(CC(=O)OCC(=O)Nc2ccc(N(C)C)cc2)cc(OC)c1OC", "values": [{"measurement": "IC50", "setting": "[4]", "value": "53.3 µM (active)"}]}
{"smiles": "CN(C)c1cc(NC(=O)CN2CCCC2)c2ccccc2n1", "values": [{"measurement": "IC50", "setting": "[4]", "value": "41.6 µM (active)"}]}
{"smiles": "COc1cc(C(C)=NNC(=O)c2ccncc2)ccc1O", "values": [{"measurement": "IC50", "setting": "[4]", "value": "49.6 µM (active)"}]}
{"smiles": "CCCn1nc(Oc2nc(NCC)nc(NC(C)C)n2)ccc1=O", "values": [{"measurement": "AC50", "setting": "Cytochrome P450 2C19; read-out: AC50", "value": "39.8 µM (inconclusive)"}, {"measurement": "AC50", "setting": "Cytochrome P450 3A4", "value": "0.00562 µM (inconclusive)"}]}
{"smiles": "C/C(=N\\NC(=O)C1=NNC(=O)C1C)c1cccs1", "note": "(centres undefined)", "values": [{"measurement": "EC50", "setting": "[5]", "value": "13 µM (active)"}, {"measurement": "EC50", "setting": "H4", "value": "29.9 µM (active)"}, {"measurement": "EC50", "setting": "[6]", "value": "> 120 µM (not active)"}]}
{"smiles": "C/C(=N/NC(=O)C1CCN(S(=O)(=O)c2ccc(C)cc2)CC1)c1cccc([N+](=O)[O-])c1", "values": [{"measurement": "EC50", "setting": "[3]", "value": "22.9 µM (active)"}, {"measurement": "EC50", "setting": "[1]", "value": "71 µM (active)"}, {"measurement": "EC50", "setting": "[2]", "value": "48 µM (active)"}]}
{"smiles": "CN(C)c1ccc(/C=N/O)cc1", "values": [{"measurement": "IC50", "setting": "[4]", "value": "21.8 µM (active)"}]}
